From US10583181B2, “Recombinant multiple domain fusion protein mitogens and use thereof for inducing enhancement or repression of antigen-specific immunity” (priority 2008, dated 2020)
“Also recorded” adds a separate entry of the source.

Key:
[1] = system: Influenza hemaglutinin-specific T cell response; design: species or system Balb/c mice; settings: mouse, in vivo, ip
PBL-B cells = test: TNP-specific IgG/IgM secretion ELISA; format: cell-based, human; settings: 4 days culture, supernatant ELISA
Experimental: (§1) The relative concentrations of TNP-specific human IgG and IgM in supernatants from 4 day cultures were determined by ELISA assays. TNP22-BSA (1 μg/ml) was used to coat assay plates, and alkaline phosphatase-conjugated anti-human IgG (Fab-specific) (Sigma) or anti-human IgM (μ-chain-specific) (Sigma) were used as the detection reagents. The concentration of IL-2 in fusion protein-stimulated culture supernatants was measured by human-IL-2-specific ELISA kit (Roche, Laval, QC, Canada). The lower limit of detection was 30 pg/ml in IL-2 assay.
We next assessed the effect on IgG secretion by fusion protein-induced co-clustering of CD40 and Fas in B cells. PBL-B cells were incubated with CD40L-FasL-IgFc for four days and the supernatants were assayed for IgG- and IgM-specific trinitrophenyl (TNP) hapten [Galanaud et al., Cell. Immunol., 106:234 (1987)].
PBMCs were stimulated with fusion proteins for four days. The relative concentrations of TNP-specific human IgG and IgM in supernatants were determined by ELISA assays. […] The data represent the three experiments with similar results.

Influenza hemaglutinin = system: Influenza hemaglutinin; design: species or system Balb/c mice; settings: mouse; for HA-specific IgG, secondary response following boost / HA-specific IgG, primary response: in vivo; for HA-specific IgG, primary response: ip
OVA = test: Anti-OVA IgG response in immunized mice (ELISA titer); format: in vivo, Balb/c mice
Experimental: Balb/c mice (4-6 wks of age) were primed intra peritoneal (i.p.) route with 0.1 ml of protein antigens, OVA albumin (Sigma) or GSK […] (GlaxoSmithKline, Mississauga, Ontario, Canada), in the presence and absence of fusion protein or cDNA harboring plasmid. To determine the antigen-specific IgG titer in the serum of the individual mouse, ELISA were performed using 0.1 μg/ml antigen-coated assay plates (Maxisorp, Nunc 44-2404-21) following the standard procedure.
Balb/c mice were immunized i.p. with 0.2 μg of OVA and 5 μg of CD40L-FasL-IgFc (indicated as Primed). On Day 14, blood samples were harvested and subsequently mice were injected with 0.2 μg of OVA (indicated as Boosted). Sera from day 14 and day 21 were analysed by ELISA for the IgG activity against OVA. […] Squares indicate mice immunized with OVA alone. Circles indicate mice immunized with both OVA and CD40L-FasL-IgFc. Numbers in squares and circles indicate individual mouse. The […] activity of pre-immune serum from each mouse was equally low at less than 50 in titer.

[2] = system: B cell (CD19+) and monocyte (CD14+) fractions; test: Phenotype of CD40L-FasL-IgFc activated cells; format: cell-based, human; settings: cultures stimulated for 5 days
[3] = system: PBL-T cells and PBL-non-T cells; test: Proliferation of PBL-T cells versus PBL-non-T cells; format: cell-based, human; settings: 0.1 μM, 3 days
Experimental: (§2) Human lymphocytes were stimulated for 3 days in 96 U-bottom well plates with various concentrations of recombinant fusion proteins. In some experiments, a NF-κB inhibitor (SN50, 18 μM, Calbiochem, San Diego, Calif., USA) and a MEK1/2 inhibitor (PD98059, 1 μg/ml, Calbiochem) were added to the cell culture media. Cell proliferation was assessed by thymidine uptake assays. Cultured cells were pulsed with 1 μCi/well of [^3H]thymidine (ICN, Costa Mesa, Calif., USA) for 18 hours and then harvested onto glass fiber filters. [^3H]thymidine incorporation was measured by standard liquid scintillation counting techniques. In some experiments, HA antigen-specific cell proliferation response was assayed by the MTT assay [van de Loosdrecht et al., J. Immunol. Methods, 174:311(1994)], which is a direct measure of cell viability.
PBL-T cells and PBL-non-T cells were stimulated with CD40L-FasL-IgFc (0.1 μM) for three days prior to proliferation assay. […] The data represent the three experiments with similar results. […]
PBMCs derived from normal healthy human adults were separated from whole blood using Ficoll-Paque Plus. […] The purity of human PBL-T cells was greater than 97% as determined by CD3 staining and flow cytometry. […] CD4^+ and CD8^+ T cells were purified to greater than 90% positive for CD4 and CD8, respectively as determined by flow cytometry studies.

PRDI-BF1 = PRDI-BF1 RNA by RT-PCR; format: cell-based, human; settings: 0.1 μM, 3 days
Experimental: (§3) Using specific primers, PRDI-BF1 RNA was amplified by RT-PCR (20 cycles) from cytoplasmic RNA derived from PBL cells stimulated for three days with fusion proteins (0.1 μM). T-bet and GATA3 RNAs were amplified by RT-PCR (25 cycles) from cytoplasmic RNA derived from CD4^+ T cells stimulated for five days with fusion proteins (0.1 μM). Each sample was subjected to electrophoresis on agarose gels and stained with ethidium bromide (EtBr) to detect amplified fragments: 594 bp for PRDI-BF1, 206 bp for T-bet and 131 bp for GATA3.
PBMCs were stimulated with fusion proteins (0.1 μM) for three days. The total RNA was assayed for the message of PRDI-BF1 by RT-PCR. Each sample was electrophoresed on agarose gels and stained with ethidium bromide (EtBr) to detect amplified fragments. The data represent the results from three experiments with similar results.

[4] = system: human B lymphoma cells (Raji, Daudi); test: Cell death of human B lymphoma cells after treatment; format: cell-based; settings: Raji and Daudi cells
human PBMCs = test: Proliferation of human PBMC ([3H]thymidine uptake); format: cell-based
Experimental: as §2
We cultured human PBMCs and mouse spleen cells in the presence of CD40L-FasL-IgFc. Whole blood, obtained from a healthy donor, was twice diluted with Na-PBS (pH 7.2) and peripheral blood mononuclear cells (PBMCs) were separated by Ficoll density gradients (Ficoll-Paque Plus, Amarsham Biotech) by centrifugation (Sorvall RT 6000, 1500 rpm for 15 minutes at room temperature). The peripheral blood mononuclear cells were collected from the interphase between the PBS top layer and Ficoll plus bottom layer, washed with PBS and subjected to cell proliferation assays. […]

IL-2 = IL-2 production of T cells (ELISA); format: cell-based, human; settings: 1 μg/ml, 3 days
Experimental: as §1
T cells were stimulated by B7-2-FasL-IgFc (1 μg/ml) or phytohemagglutinin (5 μg/ml) for 3 days. The concentration of IL-2 in culture supernatants was measured by ELISA assays. The lower limit of detection was 30 pg/ml in IL-2 assay. The data represent the three experiments with similar results.

T-bet = T-bet RNA in CD4+ T cells by RT-PCR; format: cell-based, human; settings: 5 days
Experimental: as §3
CD4^+ T cells were stimulated by B7-2-FasL-IgFc (0.1 μM) for 5 days before total RNA was harvested and tested for increased mRNA expression of T-bet (for Th1 differentiation) and GATA-3 (for Th2 differentiation) by RT-PCR. Each sample was electrophoresed on agarose gels and stained with ethidium bromide (EtBr) to detect amplified fragments: 206 bp for T-bet and 131 bp for GATA3. The data represent the three experiments with similar results.

[5] = system: Total T cells, CD4+ T cells and CD8+ T cells; test: Proliferation of purified human T cells (total, CD4+, CD8+); format: cell-based
Experimental: as §2
PBMCs derived from normal healthy human adults were separated from whole blood using Ficoll-Paque Plus. Peripheral blood lymphocyte (PBL)-T cells, PBL-B cells, CD4^+ T cells, CD8^+ T cells were purified by negative selection using RosetteSep (StemCell Tec. Vancouver, BC, Canada), while non-T cells were purified by negative selection using pan-T magnet beads (M-450, Dynal, Lake Success, N.Y., USA). The purity of human PBL-T cells was greater than 97% as determined by CD3 staining and flow cytometry. […] CD4^+ and CD8^+ T cells were purified to greater than 90% positive for CD4 and CD8, respectively as determined by flow cytometry studies.
Total T cells, CD4^+ T cells and CD8^+ T cells were stimulated with either B7-2-FasL-IgFc or control fusion proteins. CD4^+ T cells and CD8^+ T cells were stimulated with various fusion proteins. After 72 hours in culture, cell proliferation was assessed. Data indicates the average and standard deviation of quadruplicate samples. The data represent the three experiments with similar results.

[6] = system: human Fas-apoptosis-sensitive Jurkat T cell line or human peripheral blood T lymphocytes; test: Cell death in Jurkat T cell line or peripheral blood T lymphocytes; format: cell-based
Source text: According to understanding, the strong cell activation by simultaneous stimulation of a co-stimulation receptor and another death receptor is not a predictable outcome. […] A possible explanation for the strong activation in CD28^+/Fas^+ T cells is that B7-2 and FasL must be located in the close proximity to each other, as is the case when linked together in the B7-2-FasL-IgFc fusion protein.

For “CD40L-FasL-IgFc: fusion protein of human CD40L extracellular domain, human FasL extracellular domain and human IgG1 Fc (SEQ ID NO: 13)”, the “HA-specific CD8+ T cell response” value [1] was “only detectable in spleen cells immunized with CD40L-FasL-IgFc”, the “HA-specific response by total T cells” value [1] was “lowered the HA-specific response by total T cells” and the “anti-TNP IgG secretion” value (PBL-B cells) was “significantly increased”. The “HA-specific IgG, secondary response following boost” value (Influenza hemaglutinin) was “far greater”, the “HA-specific IgG, primary response” value (Influenza hemaglutinin) was “significantly increased the antibody response” and the “OVA-specific IgG, primary response” value (OVA; 0.2 μg OVA + 5 μg fusion protein i.p., day 14 sera) was “high titers”. For the same substance, the “OVA-specific IgG after boost” value (OVA; boost 0.2 μg OVA on day 14, day 21 sera) was “increased markedly”, the “increase of B cell (CD19+) fraction” value [2] was 30% and the “increase of monocyte (CD14+) fraction” value [2] was 15%. The “cell subset specificity of activation (T versus non-T/B cells)” value [3] was “did not activate T lymphocytes but resulted in a strong mitogenic activity against B cells; also recorded: specific for the non-T cell subsets”, the “expression of PRDI-BF1 RNA” value (PRDI-BF1) was “increased expression” and the “cell death of B lymphoma cells” value [4] was “did not undergo cell death”. The “cell activation / mitogenic response (proliferation) of PBMC” value (human PBMCs; 3 days stimulation, 3H-thymidine, active even at 0.1-0.01 μg/ml) was “significant cell activation; also recorded: greatly exceeded the mitogenic response induced by the co-stimulation with CD40L-IgFc and FasL-IgFc” and the “mitogenic activity after adsorption with Polymixin B” value (human PBMCs; fusion protein pre-absorbed with Polymixin B-coated beads, 3 days) was “did not attenuate the mitogenic activity”.
For “B7-2-FasL-IgFc: fusion protein of human B7-2 extracellular domain, FasL extracellular domain and IgG1 Fc (SEQ ID NO: 17)”, the “IL-2 secretion by T cells” value (IL-2) was “secretion of IL-2”, the “HA-specific CD8+ T cell response” value [1] was “undetectable” and the “HA-specific response by total T cells” value [1] was “suppressed the HA-specific response by total T cells”. The “T-bet transcription factor RNA” value (T-bet; CD4+ T cells, 0.1 μM) was “significant increase”, the “differentiation of CD4+ T cells in vitro” value (T-bet; from T-bet/GATA3 RT-PCR) was “skewing towards Th1 subsets” and the “T cell proliferation (mitogenic response)” value ([5]; 72 hours culture) was “strong activation of proliferation; also recorded: strong T cell-specific mitogenic response; also recorded: proliferation of both CD4^+ and CD8^+ T cells increased”. For the same substance, the “magnitude of T cell proliferation compared with phytohemagglutinin (PHA)” value ([5]; 72 hours culture) was “comparable to that induced by the well-known T cell mitogen PHA; also recorded: comparable to phytohemagglutinin-induced T cell mitogenesis”, the “dose required by CD8+ T cells to achieve similar levels of proliferation to CD4+ T cells” value ([5]; CD8+ versus CD4+ T cells) was > 20 fold and the “humoral and cellular immune responses in vivo” value (Influenza hemaglutinin) was “severe repression of humoral and cellular immune responses”. For the same substance, the “HA-specific IgG, secondary response following boost” value (Influenza hemaglutinin) was “far lower”, the “HA-specific IgG, primary response” value (Influenza hemaglutinin) was “repressed the antibody response” and the “induction of cell death” value [6] was “did not induce cell death”.
